From patent publication US20250186391A1, “ORAL COMPLEMENT FACTOR D INHIBITORS” (BioCryst Pharmaceuticals, Inc., priority 2019, published 2025) come the findings set out here.

Where only a bound is given, the exact number is not on record here.

Chain of Factor D (P00746 26-253): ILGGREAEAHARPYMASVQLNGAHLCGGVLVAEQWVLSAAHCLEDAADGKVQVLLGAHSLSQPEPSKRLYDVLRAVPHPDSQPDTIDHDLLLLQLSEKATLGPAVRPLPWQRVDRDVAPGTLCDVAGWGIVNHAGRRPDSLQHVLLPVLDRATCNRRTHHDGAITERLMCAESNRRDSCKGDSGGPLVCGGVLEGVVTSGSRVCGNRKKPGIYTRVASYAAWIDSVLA

For this test, the target named is Factor D (Homo sapiens (Human), UniProt P00746). Put plainly: Factor D esterolytic assay. It counts as biochemical. The settings on record: Z-Lys-SBzl substrate, 100 mM HEPES, 500 mM NaCl, pH 7.5, 10% DMSO; tested a minimum of three times; read-out: Measured Ki (IC50) Value for Compounds: IC50. A digest of the protocol:
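Buffer was 100 mM HEPES, 500 mM NaCl, pH 7.5 with 10% DMSO. Compound and Factor D were combined, then Z-Lys-SBzl (1.29 mM) was added either at once or following room-temperature incubation. Rates came from DTNB colour at 405 nm minus 690 nm over 600 s, with percent inhibition giving IC50 over at least three tests.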
In general, IC50 refers to the midpoint of a concentration-inhibition curve. As for `NCc1cccc(-c2cc3c(COc4ccccc4CC(=O)O)coc3c3ccoc23)c1` [Compound 123g, 2-(2-((5-(3-(aminomethyl)phenyl)benzo[1,2-b:3,4-b′]difuran-3-yl)methoxy)phenyl)acetic acid], the IC50 was less than 1 µM.

`CCc1oc2ccc(-c3cccc(CN)c3)cc2c1COc1cc(C)ccc1CC(=O)O` [Compound 319c, 2-(2-((5-(3-(aminomethyl)phenyl)-2-ethylbenzofuran-3-yl)methoxy)-4-methylphenyl)acetic acid]: the IC50 was less than 1 µM.

On to `COc1c(-c2ccc3c(c2)c(COc2ccccc2CC(=O)O)nn3C2CCCC2)ccnc1CN` [Compound 327d, 2-(2-((5-(2-(aminomethyl)-3-methoxypyridin-4-yl)-1-cyclopentyl-1H-indazol-3-yl)methoxy)phenyl)acetic acid], for which the IC50 was in the range of 1 to 10 µM.

On to `NCc1cccc(-c2cc3cccc(COc4ccccc4CC(=O)O)c3o2)c1` [Compound 98g, 2-(2-((2-(3-(aminomethyl)phenyl)benzofuran-7-yl)methoxy)phenyl)acetic acid], for which the IC50 is less than 1 µM.

`COc1ccc(CC(=O)O)c(OCc2coc3c(NCC4CCCC4)cc(-c4cccc(CN)c4)cc23)c1` [Compound 277c, 2-(2-((5-(3-(aminomethyl)phenyl)-7-((cyclopentylmethyl)amino)benzofuran-3-yl)methoxy)-4-methoxyphenyl)acetic acid]: the IC50 is less than 1 µM.

As to `NCc1cccc(-c2cc(OCC3CC3)c3occ(COc4ccccc4CC(=O)O)c3c2)c1` [Compound 159f, 2-(2-((5-(3-(aminomethyl)phenyl)-7-(cyclopropylmethoxy)benzofuran-3-yl)methoxy)phenyl)acetic acid], the IC50 was less than 1 µM.

For the compound `CC(C)c1ccccc1-c1cc(-c2cccc(CN)c2)cc2c(COc3ccccc3CC(=O)O)coc12` [Compound 219c, 2-(2-((5-(3-(aminomethyl)phenyl)-7-(2-isopropylphenyl)benzofuran-3-yl)methoxy)phenyl)acetic acid], the IC50 is less than 1 µM.

Turning to `NCc1cccc(-c2cc(CO)cc3cc(COc4ccccc4CC(=O)O)oc23)c1` [Compound 29b, 2-(2-((7-(3-(aminomethyl)phenyl)-5-(hydroxymethyl)benzofuran-2-yl)methoxy)phenyl)acetic acid], the IC50 is less than 1 µM.

As to `NCc1cccc(-c2ccc3occ(COc4ccc(F)cc4CC(=O)O)c3c2)c1F` [Compound 45b, 2-(2-((5-(3-(aminomethyl)-2-fluorophenyl)benzofuran-3-yl)methoxy)-5-fluorophenyl)acetic acid], the IC50 was less than 1 µM.

Take `CC(O)c1cc(-c2cccc(CN)c2)c2oc(COc3ccccc3CC(=O)O)cc2c1` (stereo not shown) [Compound 31, 2-(2-((7-(3-(aminomethyl)phenyl)-5-(1-hydroxyethyl)benzofuran-2-yl)methoxy)phenyl)acetic acid]: the 50% inhibitory concentration (IC50) was less than 1 µM.

Regarding `CC(C)n1nc(COc2ccccc2C(=O)O)c2cc(-c3cccc(CN)c3)ccc21` [Compound 299d, 2-((5-(3-(aminomethyl)phenyl)-1-isopropyl-1H-indazol-3-yl)methoxy)benzoic acid], the IC50 is less than 1 µM.

Turning to `NCc1cccc(-c2ccc3oc(F)c(COc4ccccc4CC(=O)O)c3c2)c1` [Compound 204c, 2-(2-((5-(3-(aminomethyl)phenyl)-2-fluorobenzofuran-3-yl)methoxy)phenyl)acetic acid], the half-inhibitory concentration (IC50) was less than 1 µM.

Consider `COc1ccc(CC(=O)O)c(OCc2coc3c(C(F)(F)F)cc(-c4cccc(CN)c4)cc23)c1` [Compound 270c, 2-(2-((5-(3-(aminomethyl)phenyl)-7-(trifluoromethyl)benzofuran-3-yl)methoxy)-4-methoxyphenyl)acetic acid], for which the IC50 is less than 1 µM.

Turning to `N[C@H](CO)c1cccc(-c2ccc3occ(COc4ccccc4CC(=O)O)c3c2)c1` [Compound 51c, (S)-2-(2-((5-(3-(1-amino-2-hydroxyethyl)phenyl)benzofuran-3-yl)methoxy)phenyl)acetic acid], the IC50 is less than 1 µM.

For the compound `CC(C)n1nc(COc2ccccc2CCC(=O)O)c2cc(-c3cccc(CN)c3)ccc21` [Compound 308d, 3-(2-((5-(3-(aminomethyl)phenyl)-1-isopropyl-1H-indazol-3-yl)methoxy)phenyl)propanoic acid], the IC50 was in the range of 1 to 10 µM.

In the case of `CC(C)n1nc(COc2ccccc2CC(=O)O)c2cc(-c3cc(CN)cc(C4CC4)c3)ccc21` [Compound 331e, 2-(2-((5-(3-(aminomethyl)-5-cyclopropylphenyl)-1-isopropyl-1H-indazol-3-yl)methoxy)phenyl)acetic acid], the IC50 lay in the range of 1 to 10 µM.

Take `NCc1cccc(-c2cc3c(COc4ccccc4CC(=O)O)cccc3o2)c1` [Compound 282f, 2-(2-((2-(3-(aminomethyl)phenyl)benzofuran-4-yl)methoxy)phenyl)acetic acid]: the IC50 is less than 1 µM.

Consider `NCc1cccc(-c2cc(-c3cc4ccccc4[nH]3)c3occ(COc4ccccc4CC(=O)O)c3c2)c1` [Compound 137c, 2-(2-((5-(3-(aminomethyl)phenyl)-7-(1H-indol-2-yl)benzofuran-3-yl)methoxy)phenyl)acetic acid], for which the IC50 was less than 1 µM.

As to `NCc1cccc(-c2cc(COc3ccccc3)cc3cc(COc4ccccc4CC(=O)O)oc23)c1` [Compound 33f, 2-(2-((7-(3-(aminomethyl)phenyl)-5-(phenoxymethyl)benzofuran-2-yl)methoxy)phenyl)acetic acid], the IC50 was less than 1 µM.

As to `CCc1ccc(CC(=O)O)c(OCc2c(C)oc3ccc(-c4cccc(CN)c4)cc23)c1` [Compound 202c, 2-(2-((5-(3-(aminomethyl)phenyl)-2-methylbenzofuran-3-yl)methoxy)-4-ethylphenyl)acetic acid], the IC50 is less than 1 µM.

Consider `COc1ccc(CC(=O)O)c(OCc2c(C)oc3c(NCC4CC4)cc(-c4cccc(CN)c4)cc23)c1` [Compound 274c, 2-(2-((5-(3-(aminomethyl)phenyl)-7-((cyclopropylmethyl)amino)-2-methylbenzofuran-3-yl)methoxy)-4-methoxyphenyl)acetic acid], for which the half-inhibitory concentration (IC50) is less than 1 µM.

With `NCc1cccc(-c2cc(CNCC3CC3)c3occ(COc4ccccc4CC(=O)O)c3c2)c1` [Compound 209c, 2-(2-((5-(3-(aminomethyl)phenyl)-7-(((cyclopropylmethyl)amino)methyl)benzofuran-3-yl)methoxy)phenyl)acetic acid], the half-maximal inhibitory concentration (IC50) was less than 1 µM.

On to `COc1ccc(CC(=O)O)c(OCc2c(C(C)C)oc3c(NCC4CC4)cc(-c4cccc(CN)c4)cc23)c1` [Compound 295h, 2-(2-((5-(3-(aminomethyl)phenyl)-7-((cyclopropylmethyl)amino)-2-isopropylbenzofuran-3-yl)methoxy)-4-methoxyphenyl)acetic acid], for which the half-maximal inhibitory concentration (IC50) was less than 1 µM.

Take `Cc1ccc(OCc2coc3ccc(-c4cccc(CN)c4)cc23)c(CC(=O)O)c1` [Compound 105d, 2-(2-((5-(3-(aminomethyl)phenyl)benzofuran-3-yl)methoxy)-5-methylphenyl)acetic acid]: the IC50 is less than 1 µM.

In the case of `NCc1cccc(-c2cc(NCC3CCCC3)c3occ(COc4ccccc4CC(=O)O)c3c2)c1` [Compound 146d, 2-(2-((5-(3-(aminomethyl)phenyl)-7-((cyclopentylmethyl)amino)benzofuran-3-yl)methoxy)phenyl)acetic acid], the concentration for half-maximal inhibition (IC50) is less than 1 µM.

`CCOC(=O)Cc1ccccc1OCc1cc(-c2cccc(CN)c2)c2oc(COc3ccccc3CC(=O)O)cc2c1` [Compound 22e, 2-(2-((7-(3-(aminomethyl)phenyl)-5-((2-(2-ethoxy-2-oxoethyl)phenoxy)methyl)benzofuran-2-yl)methoxy)phenyl)acetic acid]: the IC50 was less than 1 µM.

Consider `Cc1nn(C)cc1-c1cc(-c2cccc(CN)c2)cc2c(COc3ccccc3CC(=O)O)coc12` [Compound 134c, 2-(2-((5-(3-(aminomethyl)phenyl)-7-(1,3-dimethyl-1H-pyrazol-4-yl)benzofuran-3-yl)methoxy)phenyl)acetic acid], for which the IC50 is less than 1 µM.

For the compound `C[C@H](N)c1cccc(-c2ccc3occ(COc4ccccc4CC(=O)O)c3c2)c1` [Compound 54c, (S)-2-(2-((5-(3-(1-aminoethyl)phenyl)benzofuran-3-yl)methoxy)phenyl)acetic acid], the half-maximal inhibitory concentration (IC50) is less than 1 µM.

In the case of `NCc1cccc(-c2cc(OCc3nccs3)c3occ(COc4ccccc4CC(=O)O)c3c2)c1` [Compound 196f, 2-(2-((5-(3-(aminomethyl)phenyl)-7-(thiazol-2-ylmethoxy)benzofuran-3-yl)methoxy)phenyl)acetic acid], the IC50 is less than 1 µM.

With `NCc1cccc(-c2cccc3cc(COc4cccc(CC(=O)O)c4)oc23)c1` [Compound 34c, 2-(3-((7-(3-(aminomethyl)phenyl)benzofuran-2-yl)methoxy)phenyl)acetic acid], the IC50 is greater than 10 µM.

For `Cn1nc(COc2ccccc2CC(=O)O)c2cc(-c3cccc(CN)c3)ccc21` [Compound 117d, 2-(2-((5-(3-(aminomethyl)phenyl)-1-methyl-1H-indazol-3-yl)methoxy)phenyl)acetic acid], the IC50 is less than 1 µM.

As to `CC(C)(C)OC(=O)Nc1cccc(CC(=O)O)c1OCc1coc2ccc(-c3cccc(CN)c3)cc12` [Compound 91a, 2-(2-((5-(3-(aminomethyl)phenyl)benzofuran-3-yl)methoxy)-3-((tert-butoxycarbonyl)amino)phenyl)acetic acid], the IC50 was less than 1 µM.

`NCc1cccc(-c2ccc3occ(COc4ccccc4C(=O)O)c3c2)c1` [Compound 1f, 2-((5-(3-(aminomethyl)phenyl)benzofuran-3-yl)methoxy)benzoic acid]: the IC50 is less than 1 µM.

Take `CC(C)n1cc(-c2cc(-c3cccc(CN)c3)cc3c(COc4ccccc4CC(=O)O)coc23)cn1` [Compound 130c, 2-(2-((5-(3-(aminomethyl)phenyl)-7-(1-isopropyl-1H-pyrazol-4-yl)benzofuran-3-yl)methoxy)phenyl)acetic acid]: the IC50 was less than 1 µM.
